In patent US20140113958A1, “HCV Combination Therapy” (priority 2011, published 2014):
Where “and” joins values, the source holds several entries; their conditions need not be identical. Identical values can stand only once. Entries after “also recorded” stand apart in the source; their conditions may differ. Like-named read-outs stand apart in the source and are kept apart here.

Assays:
[1] = tested on: HCV genotype Ib replicon (I389luc-ubi-neo/NS3-3′/ET) in Huh-luc/neo-ET cells; format: cell-based; conditions: for Efficacy, Antagonism vol / Interaction: second drug in combination with miravirsen (SPC3649); for Efficacy, Antagonism vol: 95% confidence interval, median (≧3 experiments) or individual values; for Interaction: overall
Method: (§1) The anti-viral efficacy and cellular toxicity of non-transfected antimiR oligonucleotide in combination with approved and experimental anti-HCV therapeutics (e.g. NM283, 2′-C-methylcytidine, and/or VX-222) (or other NS5B polymerase inhibitors) was determined in the reporter cell line Huh-luc/neo-ET. This cell line harbors the persistently replicating I389luc-ubi-neo/NS3-3′/ET replicon containing the firefly luciferase gene-ubiquitin-neomycin phosphotransferase fusion protein and EMCV IRES driven NS3-5B HCV coding sequences containing the ET tissue culture adaptive mutations (E1202G, T1208I, and K1846T). Eight dilutions of non-transfected antimiR oligonucleotide (bracketing the calculated EC50) were evaluated in triplicate on duplicate sets of three plates with five dilutions of each of the control compounds (bracketing the calculated EC50). One set of plates was used for the determination of cellular toxicity and the other set of plates was used for the determination of anti-viral efficacy. The efficacy and toxicity results was quantified with firefly luciferase activity and XTT dye reduction, respectively, and the results of the assay is imported into the Prichard and Shipman MacSynergy II software program. The MacSynery II analysis includes calculation of the dose response of the two (or more) compounds when used alone followed by calculation of the expected additive level of antiviral inhibition or toxicity when the compounds are used together based on the individual dose response curves. The expected level of activity at each of the concentration data points was compared to the experimentally determined antiviral activity in the assay. The expected activity was subtracted from the realized activity, yielding a negative, zero or positive value. These values are plotted as a three dimensional representation of the data and the result is reported as a two-factor value, expressing the combined average above the expected level of activity (synergy volume) and the combined average below the expected level of activity (antagonism volume). Combination analysis was performed two or more times for each pair of test compound and control substance.
(§2) The reporter cell line Huh-luc/neo-ET was obtained from Dr. Ralf Bartenschlager (Department of Molecular Virology, Hygiene Institute, University of Heidelberg, Germany) by ImQuest BioSciences. This cell line harbors the persistently replicating 1389luc-ubi-neo/NS3-3′IET replicon containing the firefly luciferase gene-ubiquitinneomycin phosphotransferase fusion protein and EMCV IRES driven NS3-5B HCV coding sequences containing the ET tissue culture adaptive mutations (E 1202G, T12081, and KI846T). A stock culture of the Huh-luc/neo-ET was expanded by culture in DMEM supplemented with 10% FBS, 2 mM glutamine, penicillin (100 IU/mL)/streptomycin (100 f·Ig/mL) and IX nonessential amino acids plus I mg/ml G418. Prior to plating, the cells were split 1:4 and cultured for two passages in the same medium plus 250 f·Ig/mL G418. The cells were treated with trypsin and enumerated by staining with trypan blue and seeded into 96-well tissue culture plates at a cell culture density 5.0×10^3 cells per well in a volume of 85 f·IL per well and incubated at […] in an environment of 5% CO2 for 24 hours. Six plates were established for the determination of combination efficacy (EC50) and cytotoxicity (TC50) for each of the compound combinations (three plates each for efficacy and toxicity). Following the 24 hour incubation, eight 2-fold serial dilutions of SPC3649 in cell culture medium without G418 were prepared (final in well high test concentration of 1.20 μM to 2.40 μM) and added to the cells and five 2-fold or 5-fold serial dilutions of control compounds in cell culture medium without G418 were prepared and added to the cells.

Huh-luc/neo-ET cells = test: Cellular toxicity by XTT dye reduction in Huh-luc/neo-ET cells
Method: as §1
as §2, with “Following the 24 hour incubation, eight 2-fold serial dilutions of SPC3649 in cell culture medium without G418 were prepared (final in well high test concentration of 1.20 μM to 2.40 μM) and added to the cells and five 2-fold or 5-fold serial dilutions of control compounds in cell culture medium without G418 were prepared and added to the cells.” left out

[2] = tested on: Huh-luc/neo-ET HCV genotype Ib replicon cells; format: cell-based; conditions: for rate of cell expansion / resistant clonal populations: selection with G418, 28 days; for resistant clonal populations: crystal violet
Method: Cell culture and Assay setup: The reporter cell line Huh-luc/neo-ET was obtained and prepare as described previously. Cells were plated into 10 cm tissue culture dishes at a density of 3×10^5 cells per plate in culture medium containing 250 μg/ml G418 and incubated for 24 hours at 37° C. in an environment of 5% C02. Following the 24 hour incubation, dilutions of SPC3649, SPC4729, or telaprevir were prepared in cell culture medium (as above) with 750 μg/ml G418. Each of the dilutions was added to duplicate plates and the plates were incubated at 37° C. in an environment of 5% CO^2. Two additional plates received cell culture medium with 750 μg/ml G418 as a no-treatment control. […] The final concentration of SPC4729 was 10.0 μM. […] Following 28 days of passage, one set of dishes was stained with crystal violet and the other set of plates was utilized for expansion and establishment of resistant cell culture stocks.
Huh-luc/neo-ET HCY genotype Ib replicon cells were cultured under selective pressure in the presence of 750 μg/mL G4 I8 with and without four independent fixed concentrations of SPC3649 anti-miR oligonucleotide, or telaprevir, or one concentration of scrambled oligonucleotide SPC4729 for 28 days in tissue culture plates. Duplicate tissue culture dishes were established and maintained for each culture condition. Medium was replaced bi-weekly during the 28 days of culture and the cells were split at the time of medium replenishment to maintain a confluent cell culture monolayer. Following four weeks in culture, cells were either fixed with methanol and stained with crystal violet or expanded for subsequent phenotypic and genotypic characterization.

[3] = in combination with ribavirin, 95% confidence level
[4] = second drug in combination with miravirsen (SPC3649), 95% confidence interval, median or individual values

Molecule: 5′-^mCs^ocsAs^otstsGs^oTs^ocsas^mCs^oas^mCs^ots^mCs^omC^o-3′ (CCATTGTCACACTCC; all phosphorothioate, sugars by position and methylation of C not given here; further chemistry not fully specified) [miravirsen]
- overall antiviral interaction ([1]; in combination with ribavirin): apparent synergy
- EC50 ([1]; previously reported against stable HCV cell lines, read-out: average EC50): 671 nM
- EC50 ([1]; read-out: EC50 (+/− SD)): 670 nM
- CC50 (Huh-luc/neo-ET cells; read-out: CC50 (+/−SD), tested alone): > 158000 nM
- rate of cell expansion [2]: decrease in the rate of cell expansion
- resistant clonal populations ([2]; listed as SPC3649): failed to produce distinct individual resistant clonal populations; also recorded: distinct individual resistant clonal populations were not produced

Molecule: CCC[C@H](NC(=O)[C@@H]1[C@H]2CCC[C@H]2CN1C(=O)[C@@H](NC(=O)[C@@H](NC(=O)c1cnccn1)C1CCCCC1)C(C)(C)C)C(=O)C(=O)NC1CC1 [Telaprevir, (1S,3aR,6aS)-2-[(2S)-2-[[(2S)-2-Cyclohexyl-2-(pyrazine-2-carbonylamino)acetyl]amino]-3,3-dimethylbutanoyl]-N-[(3S)-1-(cyclopropylamino)-1,2-dioxohexan-3-yl]-3,3a,4,5,6,6a-hexahydro-1H-cyclopenta[c]pyrrole-1-carboxamide]
- overall antiviral interaction ([1]; in combination with ribavirin): inconclusive
- Efficacy, Antag Vol ([1]; in combination with ribavirin, 95% confidence level, individual values): 0.00/−200.2 μM^2% and 37.5/−22.6; μM^2%
- Efficacy, Antagonism vol [1]: 0/−3.2 μM^2%
- Efficacy, Antagonism vol ([1]; listed as telaprevir): −3.22 μM^2%
- Interaction [1]: Positive
- Interaction ([1]; listed as telaprevir): positive interaction
- impact of combination on in vitro cytotoxicity (Huh-luc/neo-ET cells; in combination with ribavirin): antagonistic interaction
- Cytotoxicity, Antag Vol (Huh-luc/neo-ET cells; [3]): −50.9 μM^2%
- Cytotoxicity, Synergy vol (Huh-luc/neo-ET cells; [3]): 0.00 μM^2%
- Cytotoxicity, Antagonism vol (Huh-luc/neo-ET cells; [4]): −5.05 μM^2%
- Cytotoxicity, Synergy vol (Huh-luc/neo-ET cells; [4]): 0 μM^2%
- Cell split ratio ([2]; 1.50 μM plus G418, day 15): N.S.
- Cell split ratio ([2]; 1.50 μM plus G418, day 22): N.S.
- Cell split ratio ([2]; 3.00 μM plus G418, day 15): N.S.
- Cell split ratio ([2]; 3.00 μM plus G418, day 18): N.S.
- Cell split ratio ([2]; 3.00 μM plus G418, day 22): N.S.
- Cell split ratio ([2]; 3.00 μM plus G418, day 25): N.S.
- Cell split ratio ([2]; 6.00 μM plus G418, day 11): N.S.
- Cell split ratio ([2]; 6.00 μM plus G418, day 15): N.S.
- Cell split ratio ([2]; 6.00 μM plus G418, day 18): N.S.
- Cell split ratio ([2]; 6.00 μM plus G418, day 22): N.S.
- Cell split ratio ([2]; 6.00 μM plus G418, day 25): N.S.
- rate of cell expansion [2]: dose-dependent decrease in the rate of cell expansion
- resistant clonal populations [2]: production of distinct individual resistant clonal populations
